According to patent US7915293B2, “Ubiquitin ligase inhibitors” (Rigel Pharmaceuticals, Inc., priority 2003, dated 2011):

Legend:
Set-up in all cases: key: “+” indicates that the compound exibits inhibitory activity; “−” indicates that low or no inhibitory activity was observed
[1] = tested on: HeLa cells; experiment: Cell proliferation assay, photographic image analysis of proliferation, apoptosis and death (PAD assay), HeLa; format: cell-based; conditions: 6 concentrations tested
Protocol: (§1) A549 (ATCC# CCL-185), HeLa (ATCC# CCL-2), HCT116 (ATCC# CCL-247), and H1299 (ATCC# CRL-5803) cells were maintained in T175 flasks following the ATCC recommended media and handling procedures. Flasks reaching approximately 70% confluency were trypsinized and resuspended in RPMI media (Cell-Gro catalog number 10-040-CM) modified to contain 5% FBS, 100 ug/mlPen/Strep (Cell-Gro catalog number 30-002-CL), and 0.3 mg/ml L-Glutamine (Cell-Gro catalog number 25-003-CL). A 20,000 cells/ml solution was made for plating. Cells were plated in black Packard 96 well plates by placing 100 μl per well (2,000 cells per well).
(§2) Compounds and additional media were added 24 hours after cell plating. A compound master plate was created with concentrations 500 times greater than the final concentration added to the cells. All compound testing was done in duplicate using 6.3 fold dilutions starting with 10 mM. All outside wells (and 4 internal wells) were DMSO controls. Taxol and at least one additional control were run on all plates. Three microliters of the compound master plate were added to deep well blocks containing 750 μl of RPMI media. One hundred microliters were transferred from the compound/media deep well blocks to the plated cells resulting in a 500 fold dilution of the compounds. Cells were grown at 37° C., 5% CO2 for 48 hours.
(§3) Cells to be analyzed by photography were fixed and stained. One hundred microliters of media were removed and 100 μl of 9.3% […] was added to each well. Plates were left on the benchtop for 45 minutes. A staining solution containing 1.55 μl of 1 mg/ml DAPI added to 18.75 ml PBS was warmed for 15 minutes at 37° C. The cells were aspirated prior to washing with 100 μl of PBS. Seventy microliters of PBS were aspirated and 170 μl of the DAPI solution were added to each well of fixed cells. Plates were left at room temperature for one hour then aspirated and washed twice with 100 μl of PBS. The stained cells were left at 4° C. for a minimum of 16 hours before photographic analysis with Array Scan II (Cellomics). Analysis of the photographic images to determine numbers of live cells (proliferation), apoptotic cells and dead cells, were according to the methods described in U.S. Provisional Patent Application Ser. No. 60/406,714, which incorporated herein in its entirety.

[2] = target: E3 (His-APC11/APC2-"APC") (Homo sapiens, UniProt Q9NYG5+Q9UJX6); experiment: Plate-based E3 ligase assay (APC FLAG), auto-ubiquitination; format: biochemical; conditions: for APC Flag 8 pt: 8 concentrations tested
Procedure, shortened: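 His-APC11/APC2 auto-ubiquitination was run in casein-blocked nickel plates for 1 h at room temperature, with E1 at 5 ng/well, UbcH5c at 20 ng/well and APC at 100 ng/well. Buffer was 62.5 mM Tris pH 7.6, 3 mM MgCl2, 1 mM DTT, 2.5 mM ATP and Flag-ubiquitin at 100 ng/well. Detection used anti-Flag/HRP chemiluminescence, and IC50 was typically from 6 or 8 concentrations versus a DMSO control.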

[3] = tested on: A549 cells; experiment: Cell proliferation assay, photographic image analysis of proliferation, apoptosis and death (PAD assay), A549; format: cell-based; conditions: 6 concentrations tested
Protocol: as §1, §2, §3

Sequence of E3 (His-APC11/APC2-"APC") (Q9NYG5 whole entry): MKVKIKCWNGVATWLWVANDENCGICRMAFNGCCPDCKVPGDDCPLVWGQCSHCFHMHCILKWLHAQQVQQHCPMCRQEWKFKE
Sequence of E3 (His-APC11/APC2-"APC") (Q9UJX6 whole entry): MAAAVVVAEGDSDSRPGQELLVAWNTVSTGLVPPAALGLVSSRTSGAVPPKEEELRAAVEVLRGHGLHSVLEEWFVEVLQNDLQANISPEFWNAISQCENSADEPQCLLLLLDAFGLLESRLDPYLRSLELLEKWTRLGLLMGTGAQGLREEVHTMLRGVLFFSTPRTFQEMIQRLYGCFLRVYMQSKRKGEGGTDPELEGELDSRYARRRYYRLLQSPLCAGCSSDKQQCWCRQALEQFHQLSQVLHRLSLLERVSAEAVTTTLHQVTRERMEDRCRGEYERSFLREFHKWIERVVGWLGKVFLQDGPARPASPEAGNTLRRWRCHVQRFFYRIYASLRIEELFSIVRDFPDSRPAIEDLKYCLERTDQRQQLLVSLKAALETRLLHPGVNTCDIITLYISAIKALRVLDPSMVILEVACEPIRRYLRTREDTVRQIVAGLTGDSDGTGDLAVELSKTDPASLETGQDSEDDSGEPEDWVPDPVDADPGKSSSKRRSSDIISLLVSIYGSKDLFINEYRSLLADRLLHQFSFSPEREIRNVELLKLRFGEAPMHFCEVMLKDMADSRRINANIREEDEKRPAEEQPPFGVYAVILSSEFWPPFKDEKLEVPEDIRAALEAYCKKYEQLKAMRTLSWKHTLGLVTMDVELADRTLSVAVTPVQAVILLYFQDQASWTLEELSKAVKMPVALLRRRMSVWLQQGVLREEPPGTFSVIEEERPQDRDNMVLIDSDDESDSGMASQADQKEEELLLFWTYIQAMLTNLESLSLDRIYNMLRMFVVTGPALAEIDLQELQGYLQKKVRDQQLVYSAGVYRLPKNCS

Structure (SMILES)	PAD Assay, HELA 6 pt [1]	APC Flag (2 pt) ([2]; 2 concentrations tested)	PAD Assay, A549 6 pt [3]	APC Flag 8 pt [2]
O=[N+]([O-])c1ccc(Oc2c(Cl)cc(S(=O)(=O)Nc3ccccn3)cc2Cl)c(Cl)c1 [Compound 216, 3,5-dichloro-4-(2-chloro-4-nitrophenoxy)-N-pyridin-2-ylbenzenesulfonamide]	+	− (2 pt)	+	
O=[N+]([O-])c1ccc(Oc2c(Cl)cc(S(=O)(=O)Nc3ccc(C(F)(F)F)cc3Cl)cc2Cl)c(Cl)c1 [Compound 240, 3,5-dichloro-4-(2-chloro-4-nitrophenoxy)-N-[2-chloro-4-(trifluoromethyl)phenyl]benzenesulfonamide]	+		+	+
Cc1ccc(F)cc1NS(=O)(=O)c1cc(Cl)c(Oc2ccc([N+](=O)[O-])cc2Cl)c(Cl)c1 [Compound 242, 3,5-dichloro-4-(2-chloro-4-nitrophenoxy)-N-(5-fluoro-2-methylphenyl)benzene sulfonamide]	+		+	+
Cc1cc2cc(NS(=O)(=O)c3cc(Cl)c(Oc4ccc([N+](=O)[O-])cc4Cl)c(Cl)c3)ccc2[nH]1 [Compound 244, 3,5-dichloro-4-(2-chloro-4-nitrophenoxy)-N-(2-methyl-1H-indol-5-yl)benzene sulfonamide]	+		+	+
O=S(=O)(Nc1cc(Cl)cnc1Cl)c1ccc(Oc2ncc(C(F)(F)F)cc2Cl)cc1 [Compound 257, 4-{[3-chloro-5-(trifluoromethyl)pyridin-2-yl]oxy}-N-(2,5-dichloropyridin-3-yl) benzenesulfonamide]	+		+	+
O=S(=O)(Nc1c(F)cccc1F)c1ccc(Oc2ncc(C(F)(F)F)cc2Cl)cc1 [Compound 259, 4-{[3-chloro-5-(trifluoromethy)pyridin-2-yl]oxy}-N-(2,6-difluorophenyl)benzene sulfonamide]	−		−	+
O=S(=O)(Nc1ccc(Oc2ncccn2)c(Cl)c1)c1cccc(Cl)c1 [Compound 292, 3-chloro-N-[3-chloro-4-(pyrimidin-2-yloxy)phenyl]benzenesulfonamide]	−		+	
O=S(=O)(Nc1ccc(Oc2ncc(C(F)(F)F)cc2Cl)cc1)c1cccc(Cl)c1 [Compound 294, 3-chloro-N-(4-(3-chloro-5-(trifluoromethyl)pyridyn-2-yloxy)phenyl)benzenesulfonamide]	+		+	
O=C(Nc1cccc(Cl)c1)N1CCC(Oc2ccccc2C(F)(F)F)CC1 [Compound 305, N-(3-chlorophenyl)-4-(2-(trifluoromethyl)phenoxy)piperidine-1-carboxamide]	+		+	
O=[N+]([O-])c1ccc(Oc2c(Cl)cc(S(=O)(=O)N3CCCCC3)cc2Cl)c(Cl)c1 [Example 21, 1-{[3,5-dichloro-4-(2-chloro-4-nitrophenoxy)phenyl]sulfonyl}piperidine]			−	−
N=C(NS(=O)(=O)c1cc(Cl)c(Oc2ccc([N+](=O)[O-])cc2Cl)c(Cl)c1)c1ccc(Cl)cc1 [Example 25, 4-chloro-N-{[3,5-dichloro-4-(2-chloro-4-nitrophenoxy)phenyl]sulfonyl}benzene-carboximidamide]			−	+
N=C(NS(=O)(=O)c1cc(Cl)c(Oc2ccc([N+](=O)[O-])cc2Cl)c(Cl)c1)c1cccnc1 [Example 26, N-{[3,5-dichloro-4-(2-chloro-4-nitrophenoxy)phenyl]sulfonyl}pyridine-3-carboximidamide]			+	−
N=C(NS(=O)(=O)c1cc(Cl)c(Oc2ccc([N+](=O)[O-])cc2Cl)c(Cl)c1)c1ccccn1 [Example 27, N-{[3,5-dichloro-4-(2-chloro-4-nitrophenoxy)phenyl]sulfonyl}pyridine-2-carboximidamide]			−	−
N=C(NS(=O)(=O)c1cc(Cl)c(Oc2ccc([N+](=O)[O-])cc2Cl)c(Cl)c1)c1ccncc1 [Example 29, N-{[3,5-dichloro-4-(2-chloro-4-nitrophenoxy)phenyl]sulfonyl}pyridine-4-carboximidamide]			+	+
N=C(CCl)NS(=O)(=O)c1cc(Cl)c(Oc2ccc([N+](=O)[O-])cc2)c(Cl)c1 [Example 31, 2-chloro-N-{[3,5-dichloro-4-(4-nitrophenoxy)phenyl]sulfonyl}ethanimidamide]			+	−
N=C(NS(=O)(=O)c1cc(Cl)c(Oc2ccc([N+](=O)[O-])cc2)c(Cl)c1)c1cccnc1 [Example 60, N-{[3,5-dichloro-4-(4-nitrophenoxy)phenyl]sulfonyl}pyridine-3-carboximidamide]			+	−
O=S(=O)(Nc1ccc(F)cc1C(F)(F)F)c1ccc(Oc2ncc(C(F)(F)F)cc2Cl)cc1 [Example 271, 4-{[3-chloro-5-(trifluoromethyl)pyridin-2-yl]oxy}-N-[4-fluoro-2-(trifluoromethyl)phenyl]benzenesulfonamide]	+		+	
O=S(=O)(Nc1ccc(Oc2ncc(C(F)(F)F)cc2Cl)cc1)c1cccc(C(F)(F)F)c1 [Example 295, N-(4-(3-chloro-5-(trifluoromethyl)pyridin-2-yloxy)phenyl)-3-(trifluoromethyl)benzenesulfonamide]	+		+	
O=S(=O)(Nc1ccc(Oc2cc(C(F)(F)F)ccn2)cc1)c1cccc(Cl)c1 [Example 297, 3-chloro-N-(4-(4-(trifluoromethyl)pyridin-2-yloxy)phenyl)benzenesulfonamide]	−		+	
O=S(=O)(Nc1ccc(Oc2cc(C(F)(F)F)ccn2)cc1)c1cccc(C(F)(F)F)c1 [Example 298, 3-(trifluoromethyl)-N-(4-(4-(trifluoromethyl)pyridin-2-yloxy)phenyl)benzenesulfonamide]	+		+	
O=S(=O)(Nc1ccc(Oc2cc(C(F)(F)F)ccn2)cc1)c1ccccc1C(F)(F)F [Example 299, 2-(trifluoromethyl)-N-(4-(4-(trifluoromethyl)pyridin-2-yloxy)phenyl)benzenesulfonamide]	−		+	
O=S(=O)(c1cccc(Cl)c1)N1CCC(Oc2ccccc2C(F)(F)F)CC1 [Example 300, 1-(3-chlorophenylsulfonyl)-4-(2-(trifluoromethyl)phenoxy)piperidine]	+		+	
O=S(=O)(c1cccc(C(F)(F)F)c1)N1CCC(Oc2ccccc2C(F)(F)F)CC1 [Example 301, 4-(2-(trifluoromethyl)phenoxy)-1-(3-(trifluoromethyl)phenylsulfonyl)piperidine]	+		+	
O=S(=O)(c1ccccc1C(F)(F)F)N1CCC(Oc2ccccc2C(F)(F)F)CC1 [Example 302, 4-(2-(trifluoromethyl)phenoxy)-1-(2-(trifluoromethyl)phenylsulfonyl)piperidine]	+		+	
O=C(Nc1ccccc1C(F)(F)F)N1CCC(Oc2ccccc2C(F)(F)F)CC1 [Example 306, 4-(2-(trifluoromethyl)phenoxy)-N-(2-(trifluoromethyl)phenyl)piperidine-1-carboxamide]	−		−	
